The target in one series is T1, CB1R (Mus musculus, UniProt P47746).
T1 construct: crude membranes from mouse brain; from tissue; host or cells: mouse brain cortex (without cerebellum) membranes, C57Bl/6Jhsd mice
In words: [35S]GTPγS binding - CB1R activity, mouse brain membranes. It counts as biochemical. The conditions noted are these: CP-55,940 as reference agonist. The protocol: Mouse brains were dissected, and P2 membranes were prepared and resuspended at ∼10 μg protein/μL in 350 μL assay buffer containing 0.14% BSA. Ligand-stimulated [^35S]GTPγS binding was assayed as described in the SI. […]
utilizing [3H] C P -55,940 as the radioligand and crude membranes from humans for CB1 R or CB2 R. T he compounds were tested at various concentrations (eight points with a five-fold serial dilution starting at two m M) , and their ability to displace [3H] CP - 55, 940 was evaluated. Upon completion of the binding assays, the reaction mixture was filtered through GF/C plates, followed by four washes with cold wash buffer. After drying for one hour, 50 μL of Perkin Elmer Microscint 20 cocktail was added to the filter plate wells, and the bound [3H] C P -55,940 radioligand was measured using a β counter. All data points were duplicated, and Ki values were determined from two independent experiments using GraphPad Prism 7.02 analysis software, extracted through nonlinear regression analysis.
Tissue preparation for [ 35 S]GTPγS binding. […]
mM EGTA, 9 mM MgCl 2, and 150 mM NaCl, followed by homogenization. The protein concentration of the suspension was determined using the BCA assay, and the suspen sion was diluted to a final concentration of 2 mg/mL in assay buffer. […]
Supplementary Figure 1. […] The tested compounds were evaluated for their ability to inhibit CB1R-mediate d […]
On the technique in general: Binding of GTPγS marks nucleotide exchange on a G protein.

Another series has as its system C57BL/6J mice. In words: CB1R agonist (HU210)-induced hypomotility. The conditions noted are these: 1 or 10 mg/kg PO; HU210 30 μg/kg IP; 4 h. It counts as in vivo, mouse. Here is the method: The activity profiles of the mice were evaluated using the Promethion High-Definition Behavioral Phenotyping System (Sable Instruments, Inc., Las Vegas, NV, USA). MetaScreen software version 2.2.18.0 was employed for data acquisition and instrument control, while ExpeData version 1.8.4 was used for processing raw data. An analysis script detailing all aspects of the data transformation was utilized. Mice with unrestricted access to food and water were subjected to a standard 12 h light/12 h dark cycle, comprising a 16-h acclimation period followed by 24 h of sampling. Ambulatory activity and position were concurrently quantified by the number of disruptions of the infrared beams in three dimensions (XYZ) with a beam spacing of 0.25 cm.
The objective of this experiment was to evaluate the capability of BNS808 and rimonabant (utilized as a positive control) in inhibiting hypomotility induced by a CB1R agonist (HU210). Male wild-type C57BL/6J mice were administered a single dose of either the vehicle, rimonabant (10 mg/kg, PO), or BNS808 (1 or 10 mg/kg, PO). Thirty minutes following this administration, the mice received a single dose of HU210 (30 μg/kg, IP). The locomotor activity was quantified by assessing the disruptions of infrared beams in two dimensions for 4 h.

This is an account of results in publication PMC12067444, “Synthesis and Pharmacological Characterization of Novel Peripheral Cannabinoid-1 Receptor Blockers Based on a Tricyclic Scaffold” (Journal of Medicinal Chemistry, 2025).

SMILES strings stand for the structures. Entries after “also recorded” stand apart in the source; their conditions may differ.

T1 sequence (P47746 whole entry): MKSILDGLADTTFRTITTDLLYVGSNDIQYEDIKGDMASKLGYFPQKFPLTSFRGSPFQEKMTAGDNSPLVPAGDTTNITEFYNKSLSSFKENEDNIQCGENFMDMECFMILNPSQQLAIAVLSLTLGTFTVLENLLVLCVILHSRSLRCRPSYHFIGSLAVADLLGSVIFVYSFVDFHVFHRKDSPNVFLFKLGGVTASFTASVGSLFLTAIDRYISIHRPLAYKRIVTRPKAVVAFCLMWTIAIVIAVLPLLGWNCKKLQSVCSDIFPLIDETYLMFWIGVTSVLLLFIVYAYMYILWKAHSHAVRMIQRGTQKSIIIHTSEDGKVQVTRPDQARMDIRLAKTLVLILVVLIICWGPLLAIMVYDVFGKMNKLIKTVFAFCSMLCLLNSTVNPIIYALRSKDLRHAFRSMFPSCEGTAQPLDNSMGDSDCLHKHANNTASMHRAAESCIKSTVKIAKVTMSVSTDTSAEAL

`Cc1ccc(S(=O)(=O)NC2CCCOc3c2nn(-c2ccccc2Cl)c3-c2ccc(Cl)cc2)cc1` (centres unmarked) [BNS807]: on CB1R, the “CB1R functional profile in GTPγS assay” value was “inverse agonistic profile; also recorded: inverse agonist”.
Regarding `O=S(=O)(NC1CCCOc2c1nn(-c1ccccc1Cl)c2-c1ccc(Cl)cc1)c1ccc(Cl)cc1` (centres unmarked) [BNS808, 4-chloro-N-[2-(2-chlorophenyl)-3-(4-chlorophenyl)-5,6,7,8-tetrahydrooxepino[3,2-c]pyrazol-8-yl]benzenesulfonamide], the “antagonism of HU-210-induced hypoactivity” value with C57BL/6J mice is on record as “unable to antagonize the hypoactivity mediated by HU-210”.
